BindingDB's records for PubMed 15173008 (Wyeth Research)

Assay: Inhibition of recombinant PDK1 (unknown origin) using peptide as substrate

- IC50: > 5 µM
SMILES: COc1cc2ncc(C#N)c(Nc3ccc(OCc4ccccn4)c(Cl)c3)c2cc1NC(=O)/C=C/CN(C)C
